Measurements as given in patent US20220153746A1, “NITROGEN OXIDE-DONATING PDE-5 AND/OR PDE-6 INHIBITOR COMPOUNDS, AND USES THEREOF” (ILDONG PHARMACEUTICAL CO., LTD., priority 2020, published 2022).
Several values for one entry are separate records, joined by “and”; a condition that tells them apart may be missing. Identical values can stand only once. Like-named read-outs stand apart in the source and are kept apart here.

Assay: TD Phase (Groups 1 and 3): plasma and ocular tissue concentrations and pharmacokinetics of Compound 18 and its metabolite Compound 4 after once daily ocular instillation of Compound 18 nanosuspension for 7 days
Format: in vivo, New Zealand white rabbits
Settings: for Metabolite/Parent AUC Ratio: MW-corrected AUC of metabolite Compound 4 / parent Compound 18
From the text: This example illustrates the procedures and results for the levels of Compound 18 and its metabolite Compound 4 in plasma and ocular tissues of normotensive rabbits following ocular instillation of Compound 18 once daily for 7 consecutive days.
Twenty five (25) male New Zealand white rabbits were divided into 5 groups of varying amounts of animals per group.
The Test article, Compound 18 was formulated as a 2% nanosuspension in DI water containing 0.2% PS80 (polyoxyethylenesorbitan, monooleate (Tween 80)) and 0.4% HPMC (hydroxypropylmethylcellulose) at pH 6.77. Referred to herein as “Compound 18 nanosuspension.”
The study consisted of three groups (Groups 1-3) of 19 male rabbits (NZW) that underwent once daily morning ocular installation (1 eyedrop) for 7 consecutive days (Day 0-6). Groups 4-5 each consisted of 3 male rabbits (NZW) that were not dosed.
Blood samples (1 mL) were collected from the jugular vein at the intervals set out below for each group. The samples were then inverted several times following collection and held on wet ice until centrifuged. Samples were centrifuged within 60 minutes of collection under refrigeration (set at 5° C. for 10 minutes at 2000 g.
Group 1 (Pilot Study, terminal blood collection): blood was collected from 3 animals at 1 hour post day 7 dose of Compound 18 nanosuspension.
Group 3 (TD Phase, terminal blood collection): blood was collected from 3 animals at 0.5 hour, 3 animals at 2 hours, 3 animals at 4 hours, and 3 animals at 8 hours post day 7 dose of Compound 18 nanosuspension.
(§1) Group 1 (Pilot Study): 3 animals were terminated at 1 hour post Day 7 dose of Compound 18 nanosuspension. Following blood collection and termination, ocular tissues (aqueous humor, vitreous humor, cornea, iris/ciliary body, lens, optic nerve, retina, sclera/choroid, and trabecular meshwork) were collected from each animal and the tissue weights were recorded. Note: sclera and choroid were collected together. Iris and ciliary body were collected together.
as §1, with “3 (TD Phase):” for “1 (Pilot Study):”, “0.5 hour, 3 animals at 2 hours, 3 animals at 4 hours, and 3 animals at 8 hours” for “1 hour”
Plasma and tissue samples from treated animals (Groups 1-3) were analyzed for Compound 18 and its metabolite Compound 4 concentrations by LC-MS/MS.
Pharmacokinetic analysis was conducted using WinNonlin Version 6.2.1 (Pharsight, Mountain View, Calif.), operating as a validated software system. Noncompartmental analysis was conducted using the extravascular administration model for ocular instillation dosing.
The peak plasma and ocular tissue concentration, time to achieve peak plasma and ocular tissue concentration, half-life, and area under the plasma and ocular tissue concentration-time curve (Cmax, Tmax, T1/2, and AUC) were calculated from the TD phase combined with the pilot study mean animal plasma and ocular tissue concentrations for each sampling time/dose group for Compound 18 and its metabolite Compound 4.
BA Assay: Quantitation Range 0.05 to 100 ng/mL for Compound 18, 0.15 to 100 ng/mL for Compound 4.
3. Pipet 50 μL of each type of pre-spiked ocular tissue samples (AH/VH) for QC samples, 50 μL of incurred aqueous humor, and vitreous humor sample (if applicable) into a 96 well plate.
Ocular Tissues Homogenate Preparation: Incurred rabbit ocular tissues were weighed in Genogrinder tubes (plastic tubes with small beads) at the time of removal from the animal and stored frozen (<−70° C.) until analysis. The rabbit incurred ocular tissues were thawed on wet ice. […]

[1] = TD Phase, Group 1, 1 h, individual animals
[2] = TD Phase, Group 3, 0.5 h, individual animals
[3] = TD Phase, Group 3, 2 h, individual animals
[4] = TD Phase, Group 3, 8 h, individual animals
[5] = male, New Zealand white, rabbit, topical or ocular, 0.8 mg/kg/day, aqueous humor, Day 7, from mean concentrations
[6] = male, New Zealand white, rabbit, topical or ocular, 0.8 mg/kg/day, cornea, Day 7, from mean concentrations
[7] = male, New Zealand white, rabbit, topical or ocular, 0.8 mg/kg/day, iris/ciliary body, Day 7, from mean concentrations
[8] = male, New Zealand white, rabbit, topical or ocular, 0.8 mg/kg/day, lens, Day 7, from mean concentrations

CCCc1nn(C)c2c(=O)[nH]c(-c3cc(S(=O)(=O)N4CC(CCCO)C4)ccc3OCC)nc12 [Compound 4, 5-(2-ethoxy-5-((3-(3-hydroxypropyl)azetidin-1-yl)sulfonyl)phenyl)-1-methyl-3-propyl-1,6-dihydro-7H-pyrazolo[4,3-d]pyrimidin-7-one]
Metabolite/Parent AUC Ratio (Aqueous Humor, Day 7): 21700
AUC0-8 (Cornea, Day 7, Compound 18 0.8 mg/kg ocular instillation once daily, Groups 1 and 3): 10096 ng·h/g
Metabolite/Parent AUC Ratio (Cornea, Day 7): 52.7
AUC0-8 (Iris/Ciliary Body, Day 7, Compound 18 0.8 mg/kg ocular instillation once daily, Groups 1 and 3): 1795 ng·h/g
Metabolite/Parent AUC Ratio (Iris/Ciliary Body, Day 7): 13.1
AUC0-8 (Lens, Day 7, Compound 18 0.8 mg/kg ocular instillation once daily, Groups 1 and 3): 68.7 ng·h/g
AUC0-8 (Optic Nerve, Day 7, Compound 18 0.8 mg/kg ocular instillation once daily, Groups 1 and 3): 159 ng·h/g
Metabolite/Parent AUC Ratio (Plasma, Day 7): 6.72
AUC0-8 (Retina, Day 7, Compound 18 0.8 mg/kg ocular instillation once daily, Groups 1 and 3): 213 ng·h/g
AUC0-8 (Sclera/Choroid, Day 7, Compound 18 0.8 mg/kg ocular instillation once daily, Groups 1 and 3): 1494 ng·h/g
Compound 4 Plasma Conc. [1]: 0.412 ng/mL and 1.14 ng/mL and 0.839 ng/mL
Final Compound 4 Sclera/Choroid Conc. [1]: 171 ng/g and 240 ng/g
Final Compound 4 Retina Conc. (TD Phase, Group 1, 1 h, individual animals, BQL set to 0): 25.6 ng/g and 90.7 ng/g and 34.8 ng/g
Compound 4 Sclera/Choroid Homogenate Conc. (TD Phase, Group 1, 1 h, individual animals, homogenate dilution factor 8): 21.4 ng/mL and 30.0 ng/mL
Compound 4 Plasma Conc. [2]: 1.03 ng/mL and 0.812 ng/mL
Final Compound 4 Sclera/Choroid Conc. [2]: 154 ng/g and 142 ng/g and 331 ng/g
Compound 4 Sclera/Choroid Homogenate Conc. (TD Phase, Group 3, 0.5 h, individual animals, homogenate dilution factor 8): 19.3 ng/mL and 17.7 ng/mL and 41.4 ng/mL
Compound 4 Plasma Conc. [3]: BQL (BQL = Below lower limit of quantitation (0.0500 ng/mL for Compound 18 and 0.150 ng/mL for Compound 4))
Final Compound 4 Sclera/Choroid Conc. [3]: 121 ng/g and 234 ng/g and 88.0 ng/g
Final Compound 4 Retina Conc. (TD Phase, Group 3, 2 h, individual animals, BQL set to 0): 118 ng/g and 23.4 ng/g and 11.4 ng/g
Compound 4 Sclera/Choroid Homogenate Conc. (TD Phase, Group 3, 2 h, individual animals, homogenate dilution factor 8): 15.1 ng/mL and 29.2 ng/mL and 11.0 ng/mL
Compound 4 Retina Homogenate Conc. (TD Phase, Group 3, 2 h, individual animals, homogenate dilution factor 20 (164 for animal 207671)): 0.719 ng/mL and 1.17 ng/mL and 0.568 ng/mL
Compound 4 Plasma Conc. (TD Phase, Group 3, 4 h, individual animals): BQL (BQL = Below lower limit of quantitation (0.0500 ng/mL for Compound 18 and 0.150 ng/mL for Compound 4))
Final Compound 4 Retina Conc. (TD Phase, Group 3, 4 h, individual animals, BQL set to 0): 16.7 ng/g and 34.6 ng/g and 14.0 ng/g
Compound 4 Retina Homogenate Conc. (TD Phase, Group 3, 4 h, individual animals, homogenate dilution factor 20): 0.835 ng/mL and 1.73 ng/mL and 0.702 ng/mL
Compound 4 Plasma Conc. (TD Phase, Group 3, 8 h, Mean, BQL set to 0): BQL (BQL = Below lower limit of quantitation (0.0500 ng/mL for Compound 18 and 0.150 ng/mL for Compound 4))
Compound 4 Plasma Conc. [4]: BQL (BQL = Below lower limit of quantitation (0.0500 ng/mL for Compound 18 and 0.150 ng/mL for Compound 4))
Compound 4 Vitreous Humor Conc. [4]: BQL (BQL = Below lower limit of quantitation (0.0500 ng/mL for Compound 18 and 0.150 ng/mL for Compound 4))
Final Compound 4 Retina Conc. (TD Phase, Group 3, 8 h, individual animals, BQL set to 0): 8.90 ng/g and 0 ng/g and 8.34 ng/g
Compound 4 Retina Homogenate Conc. (TD Phase, Group 3, 8 h, individual animals, homogenate dilution factor 20): BQL^a (BQL = Below lower limit of quantitation (0.0500 ng/mL for Compound 18 and 0.150 ng/mL for Compound 4)) and 0.417 ng/mL
tissue of highest concentration (TD phase plasma and ocular tissues): highest in cornea
AUC0-8 (Trabecular Meshwork, Day 7, Compound 18 0.8 mg/kg ocular instillation once daily, Groups 1 and 3): 533 ng·h/g
Metabolite/Parent AUC Ratio (Vitreous Humor, Day 7): 447
AUC0-8 (cornea, Day 7, from mean concentrations): 10096 ng·h/g
AUC0-8 (iris/ciliary body, Day 7, from mean concentrations): 1795 ng·h/g
AUC0-8 (lens, Day 7, from mean concentrations): 68.7 ng·h/g
Metabolite/parent AUC ratio (Compound 4 vs Compound 18) (lens, TD phase): 63.0
concentration at 0.5 h (male, New Zealand white, rabbit, plasma, other: ocular instillation, 0.8 mg/kg/day, TD Phase, Group 3, 0.5 h, Mean, BQL set to 0, read-out: Compound 4 Plasma Conc.): 1.02 ng/mL
concentration at 0.5 h (male, New Zealand white, rabbit, plasma, other: ocular instillation, 0.8 mg/kg/day, TD Phase, Group 3, 0.5 h, individual animals, read-out: Compound 4 Plasma Conc.): 1.22 ng/mL
concentration at 8 h (male, New Zealand white, rabbit, retina homogenate, other: ocular instillation (eye drop), 0.798 mg/kg/day, TD Phase, Group 3, 8 h, individual animals, homogenate dilution factor 20, read-out: Compound 4 Retina Homogenate Conc.): 0.445 ng/mL
concentration at 1 h (male, New Zealand white, rabbit, retina, other: ocular instillation (eye drop), 0.798 mg/kg/day, TD Phase, Group 1, 1 h, Mean, read-out: Final Compound 4 Retina Conc.): 50.2 ng/g
concentration at 2 h (male, New Zealand white, rabbit, retina, other: ocular instillation (eye drop), 0.798 mg/kg/day, TD Phase, Group 3, 2 h, Mean, read-out: Final Compound 4 Retina Conc.): 50.9 ng/g
concentration at 4 h (male, New Zealand white, rabbit, retina, other: ocular instillation (eye drop), 0.798 mg/kg/day, TD Phase, Group 3, 4 h, Mean, read-out: Final Compound 4 Retina Conc.): 21.8 ng/g
concentration at 8 h (male, New Zealand white, rabbit, retina, other: ocular instillation (eye drop), 0.798 mg/kg/day, TD Phase, Group 3, 8 h, Mean, read-out: Final Compound 4 Retina Conc.): 5.75 ng/g
concentration at 1 h (male, New Zealand white, rabbit, sclera/choroid homogenate, other: ocular instillation (eye drop), 0.798 mg/kg/day, TD Phase, Group 1, 1 h, individual animals, homogenate dilution factor 8, read-out: Compound 4 Sclera/Choroid Homogenate Conc.): 17 ng/mL
concentration at 1 h (male, New Zealand white, rabbit, sclera/choroid, other: ocular instillation (eye drop), 0.798 mg/kg/day, TD Phase, Group 1, 1 h, Mean, read-out: Final Compound 4 Sclera/Choroid Conc.): 182 ng/g
concentration at 1 h (male, New Zealand white, rabbit, sclera/choroid, other: ocular instillation (eye drop), 0.798 mg/kg/day, TD Phase, Group 1, 1 h, individual animals, read-out: Final Compound 4 Sclera/Choroid Conc.): 136 ng/g
concentration at 0.5 h (male, New Zealand white, rabbit, sclera/choroid, other: ocular instillation (eye drop), 0.798 mg/kg/day, TD Phase, Group 3, 0.5 h, Mean, read-out: Final Compound 4 Sclera/Choroid Conc.): 209 ng/g
concentration at 2 h (male, New Zealand white, rabbit, sclera/choroid, other: ocular instillation (eye drop), 0.798 mg/kg/day, TD Phase, Group 3, 2 h, Mean, read-out: Final Compound 4 Sclera/Choroid Conc.): 148 ng/g
Cmax [5]: 124 ng/mL
Tmax [5]: 1 h
half-life [5]: 1.95 h
AUC(0-t) (male, New Zealand white, rabbit, topical or ocular, 0.8 mg/kg/day, aqueous humor, Day 7, from mean concentrations, read-out: AUC0-8): 314 ng·h/mL
Cmax [6]: 3600 ng/g
Tmax [6]: 1 h
half-life [6]: 2.63 h
Cmax [7]: 980 ng/g
Tmax [7]: 1 h
half-life [7]: 2.11 h
Cmax [8]: 18.1 ng/g
Tmax [8]: 1 h
half-life [8]: 2.25 h
